Source: patent US12060347B2 (BRISTOL-MYERS SQUIBB COMPANY, priority 2016, dated 2024)

These compounds were tested against T1, human PAR4 (Homo sapiens, UniProt Q96RI0) (assay: PAR4 FLIPR assay: antagonism of agonist-peptide-induced calcium mobilization in PAR4-expressing HEK293 cells). Conditions: H-Ala-Phe(4-F)-[…]NH2-induced intracellular calcium mobilization, 11-point curves.
T1 construct: expressed in transfected cells; host or cells: HEK293 PAR4 Clone 1.2A (BMS Arctic ID 383940)
T1 sequence (Q96RI0 18-385): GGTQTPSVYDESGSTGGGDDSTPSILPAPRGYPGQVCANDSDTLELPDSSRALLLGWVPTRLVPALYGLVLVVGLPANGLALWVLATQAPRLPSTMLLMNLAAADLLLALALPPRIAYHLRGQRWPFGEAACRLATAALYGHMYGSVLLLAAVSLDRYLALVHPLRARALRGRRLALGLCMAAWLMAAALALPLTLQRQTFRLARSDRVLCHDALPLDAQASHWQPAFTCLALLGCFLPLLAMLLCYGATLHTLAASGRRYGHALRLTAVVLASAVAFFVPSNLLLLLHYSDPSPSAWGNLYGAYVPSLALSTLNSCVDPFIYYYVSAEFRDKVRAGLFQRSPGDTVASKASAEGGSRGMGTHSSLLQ
Format: cell-based
Cc1cc(-c2nc3ccc(OCCNC(=O)OC4CCOC4)cc3s2)c2ncc(OC(F)F)nc2c1 (centres unmarked) [Example 16, tetrahydrofuran-3-yl (2-((2-(2-(difluoromethoxy)-7-methylquinoxalin-5-yl)benzo[d]thiazol-6-yl)oxy)ethyl)carbamate] was tested, and the IC50 was 80 nM.
In the case of Cc1cc(-c2nc3cccc(OCCOc4ccccc4)c3s2)c2ncc(OC(F)F)nc2c1 [Example 17, 2-(2-(difluoromethoxy)-7-methylquinoxalin-5-yl)-7-(2-phenoxyethoxy)benzo[d]thiazole], the IC50 is reported as 13 nM.
With Cc1cc(-c2nc3cccc(OCCOCc4ccccc4)c3s2)c2ncc(OC(F)F)nc2c1 [Example 18, 7-(2-(benzyloxy)ethoxy)-2-(2-(difluoromethoxy)-7-methylquinoxalin-5-yl) benzo[d]thiazole] the IC50 was 98 nM.
For Cc1cc(-c2nc3ccc(OCCNC(=O)OCC4CCCO4)cc3s2)c2ncc(OC(F)F)nc2c1 (centres unmarked) [Example 19, (Tetrahydrofuran-2-yl)methyl (2-((2-(2-(difluoromethoxy)-7-methylquinoxalin-5-yl)benzo[d]thiazol-6-yl)oxy)ethyl)carbamate], the IC50 was 41 nM.
In the case of Cc1cc(-c2nc3ccc(OCCNC(=O)OC4CCOCC4)cc3s2)c2ncc(OC(F)F)nc2c1 [Example 20, tetrahydro-2H-pyran-4-yl (2-((2-(2-(difluoromethoxy)-7-methylquinoxalin-5-yl)benzo[d]thiazol-6-yl)oxy)ethyl)carbamate], the IC50 is reported as 30 nM.
For Cc1cc(-c2nc3cccc(NC(=O)OC4CCOCC4)c3s2)c2ncc(OC(F)F)nc2c1 [Example 21, tetrahydro-2H-pyran-4-yl (2-(2-(difluoromethoxy)-7-methylquinoxalin-5-yl)benzo[d]thiazol-7-yl)carbamate], the IC50 was 3.3 nM.
Work on Cc1cc(-c2nc3cccc(NC(=O)OCC4CCCO4)c3s2)c2ncc(OC(F)F)nc2c1 (centres unmarked) [Example 22, (Tetrahydrofuran-2-yl)methyl (2-(2-(difluoromethoxy)-7-methylquinoxalin-5-yl)benzo[d]thiazol-7-yl)carbamate] yielded an IC50 of 1.8 nM.
In the case of COc1ccc2nc(-c3cc(C)cc4nc(OC(F)F)cnc34)sc2n1 [Example 23, 2-(2-(difluoromethoxy)-7-methylquinoxalin-5-yl)-5-methoxythiazolo[5,4-b]pyridine], the IC50 is reported as 5.3 nM.
COc1cncc2nc(-c3cc(C)cc4nc(OC(F)F)cnc34)sc12 [Example 24, 2-(2-(difluoromethoxy)-7-methylquinoxalin-5-yl)-7-methoxythiazolo[4,5-c]pyridine] showed an IC50 of 2 nM.
For Cc1cc(-c2cc3c(o2)CCCC3NC(=O)OC(C)(C)C)c2ncc(OC(F)F)nc2c1 (centres unmarked) [Example 25, tert-butyl (2-(2-(difluoromethoxy)-7-methylquinoxalin-5-yl)-4,5,6,7-tetrahydrobenzofuran-4-yl)carbamate], the IC50 was 130 nM.
Compound COc1cnc2c(-c3nc4c(C)cc(OCCNS(=O)(=O)c5ccc(F)cc5)cc4s3)cc(C)cc2n1 [Example 26, 4-fluoro-N-(2-((2-(2-methoxy-7-methylquinoxalin-5-yl)-4-methylbenzo[d]thiazol-6-yl)oxy)ethyl)benzenesulfonamide] has an IC50 of 3.3 nM.
COc1cnc2c(-c3nc4c(Cl)cc(OCCNS(=O)(=O)c5ccccc5)cc4s3)cc(C)cc2n1 [Example 27, N-(2-((4-chloro-2-(2-methoxy-7-methylquinoxalin-5-yl)benzo[d]thiazol-6-yl)oxy)ethyl)benzenesulfonamide] gave an IC50 of 5.4 nM.
COc1cnc2c(-c3nc4c(Cl)cc(OCCNS(=O)(=O)c5ccc(F)cc5)cc4s3)cc(C)cc2n1 [Example 28, N-(2-((4-chloro-2-(2-methoxy-7-methylquinoxalin-5-yl)benzo[d]thiazol-6-yl)oxy)ethyl)-4-fluorobenzenesulfonamide] was tested, and the IC50 was 3 nM.
With COCc1cnc2c(-c3nc4c(C)cc(OCCNS(=O)(=O)c5ccc(F)cc5)cc4s3)cc(C)cc2n1 [Example 29, 4-fluoro-N-(2-((2-(2-(methoxymethyl)-7-methylquinoxalin-5-yl)-4-methylbenzo[d]thiazol-6-yl)oxy)ethyl)benzenesulfonamide] the IC50 was 1.4 nM.
For CCOc1cnc2c(-c3nc4c(C)cc(OCCNS(=O)(=O)c5ccc(F)cc5)cc4s3)cc(C)cc2n1 [Example 30, N-(2-((2-(2-ethoxy-7-methylquinoxalin-5-yl)-4-methylbenzo[d]thiazol-6-yl)oxy)ethyl)-4-fluorobenzenesulfonamide], the IC50 was 4.7 nM.
Compound CCc1cnc2c(-c3nc4c(C)cc(OCCNS(=O)(=O)c5ccc(F)cc5)cc4s3)cc(C)cc2n1 [Example 31, N-(2-((2-(2-ethyl-7-methylquinoxalin-5-yl)-4-methylbenzo[d]thiazol-6-yl)oxy)ethyl)-4-fluorobenzenesulfonamide] has an IC50 of 240 nM.
Work on COC(=O)c1cnc2c(-c3nc4c(C)cc(OCCNS(=O)(=O)c5ccc(F)cc5)cc4s3)cc(C)cc2n1 [Example 32, methyl 5-(6-(2-(4-fluorophenylsulfonamido)ethoxy)-4-methylbenzo[d]thiazol-2-yl)-7-methylquinoxaline-2-carboxylate] yielded an IC50 of 3 nM.
In the case of Cc1cc(-c2nc3c(C)cc(OCCNS(=O)(=O)c4ccc(F)cc4)cc3s2)c2ncc(OC3CC3)nc2c1 [Example 33, N-(2-((2-(2-cyclopropoxy-7-methylquinoxalin-5-yl)-4-methylbenzo[d]thiazol-6-yl)oxy)ethyl)-4-fluorobenzenesulfonamide], the IC50 is reported as 120 nM.
Cc1cc(-c2nc3c(C)cc(OCCNS(=O)(=O)c4ccc(F)cc4)cc3s2)c2ncc(OCF)nc2c1 [Example 34, 4-fluoro-N-(2-((2-(2-(fluoromethoxy)-7-methylquinoxalin-5-yl)-4-methylbenzo[d]thiazol-6-yl)oxy)ethyl)benzenesulfonamide] was tested, and the IC50 was 1.6 nM.
COc1cnc2c(-c3nc4c(C)cc(OCc5cnc(-c6ccccc6)[nH]5)cc4s3)cc(C)cc2n1 [Example 35, 2-(2-methoxy-7-methylquinoxalin-5-yl)-4-methyl-6-((2-phenyl-1H-imidazol-5-yl)methoxy)benzo[d]thiazole] gave an IC50 of 54 nM.
In the case of COc1cnc2c(-c3nc4c(C)cc(OCC(=O)NCc5ccccc5)cc4s3)cc(C)cc2n1 [Example 36, N-benzyl-2-((2-(2-methoxy-7-methylquinoxalin-5-yl)-4-methylbenzo[d]thiazol-6-yl)oxy)acetamide], the IC50 is reported as 7.7 nM.
Work on COc1cnc2c(-c3cc4cccc(Cl)c4o3)cc(C)cc2n1 [Example 37, 5-(7-chlorobenzofuran-2-yl)-2-methoxy-7-methylquinoxaline] yielded an IC50 of 22 nM.
For COc1cnc2c(-c3cc4cc(OCCOC(=O)Nc5ccnc(C)c5)cc(Cl)c4o3)cc(C)cc2n1 [Example 38, 2-((7-chloro-2-(2-methoxy-7-methylquinoxalin-5-yl)benzofuran-5-yl)oxy)ethyl (2-methylpyridin-4-yl)carbamate], the IC50 was 2.1 nM.
COc1cnc2c(-c3cc4cc(OCCNS(=O)(=O)c5ccccc5)cc(Cl)c4o3)cc(C)cc2n1 [Example 39, N-(2-((7-chloro-2-(2-methoxy-7-methylquinoxalin-5-yl)benzofuran-5-yl)oxy)ethyl)benzenesulfonamide] gave an IC50 of 10 nM.
Work on Cc1cc(-c2cc3ccccc3s2)c2ncc(OC(F)F)nc2c1 [Example 40, 5-(benzo[b]thiophen-2-yl)-2-(difluoromethoxy)-7-methylquinoxaline] yielded an IC50 of 36 nM.
COc1cccc2cc(-c3cc(C)cc4nc(OC(F)F)cnc34)oc12 [Example 41, 2-(difluoromethoxy)-5-(7-methoxybenzofuran-2-yl)-7-methylquinoxaline] showed an IC50 of 400 nM.
